In the METLIN SMRT retention time set (Domingo-Almenara et al. 2019):

experiment: gradient 5% acetonitrile 3 min, to 50% in 2 min, to 85% in 15 min, held 3 min, 100 µL/min; settings: column: Zorbax Extend-C18 2.1 x 50 mm; eluents: water / acetonitrile, 0.1% formic acid
In short: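 Retention times of pure standards were taken from adduct peaks that were selected by computer and manually inspected. Over 3 months, mixtures of ~100 molecules were run by HPLC–quadrupole time-of-flight mass spectrometry in positive and negative ionization mode. The Zorbax Extend-C18 column (2.1 × 50 mm, 1.8 μm) ran at 100 μL/min in water and acetonitrile, each containing 0.1% formic acid, with 40 μL dead volume and 900 μL dwell volume.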

Compound | RP-LC retention time
O=C(NCc1[nH]nc2ccccc12)c1ccoc1 | 655 s
CCCn1cc(C(=O)Nc2cc(OC)cc(OC)c2)c(=O)c2ccc(C)nc21 | 1170 s
CCOC(=O)c1cc(S(=O)(=O)N2CCCC2C(=O)Nc2ccccc2)cn1C (stereo not given) | 903 s
CCc1c(C(=O)O)nnn1-c1ccc(C)c(C)c1 | 783 s
CC(C)NC(=O)c1nccnc1NC(=O)c1ccccc1 | 817 s
Cc1ccc(NS(=O)(=O)c2cc(-c3cc(C(F)(F)F)on3)sc2C)cc1 | 1170 s
C=CCNC(=O)C1CCCN(S(=O)(=O)c2cc(OC)ccc2OC)C1 (stereo not given) | 723 s
CC(C)(C)CC(=O)NCCn1c(=O)n(Cc2ccccc2)c2cccnc21 | 786 s
CCC(C)Sc1nnc(NC(=O)C2CCN(C(=O)c3ccccc3F)CC2)s1 (stereo not given) | 871 s
CCC(=O)N1CCc2cc(-c3ccc(C(=O)NCCCN4CCCC4=O)cc3)ccc21 | 712 s
O=C(c1cccs1)N1CCc2ccc(NS(=O)(=O)c3ccccc3Cl)cc2C1 | 804 s
O=C(Cn1cccc(-c2nc(-c3ccc(F)cc3)no2)c1=O)Nc1cccc(Br)c1 | 950 s
CN1CCc2[nH]cnc2C12CCN(C(=O)Nc1ccccc1C(F)(F)F)C2 (stereo not given) | 569 s
O=S(=O)(Nc1ccc(F)cc1)c1cccnc1Nc1cccc(Cl)c1 | 1130 s
CC(C)Cn1cc(C(=O)O)c(S(=O)(=O)N2CCN(C(C)C)CC2)n1 | 609 s
CCc1cc(C(=O)Nc2ccc(Cl)cc2)no1 | 997 s
CCC(C)NC(=O)c1ccc2c(c1)CCN2C(C)=O (stereo not given) | 668 s
N#Cc1ccc(C(=O)Nc2cnc(N3CCCCC3)nc2)cc1 | 862 s
Cc1cccc(Sc2nccnc2N2CCC(C(=O)NCCC(C)C)CC2)c1 | 1100 s
CCN(Cc1ccccc1)C(=O)Cn1cnc2onc(C)c2c1=O | 802 s
O=C(CC1CCN(C(=O)Nc2ccccc2F)CC1)N1CCCCC1 | 709 s
O=c1oc2cc(O)cc(O)c2c2c1CCCC2 | 708 s
CC(C)n1nnc2cc(C(=O)O)ccc21 | 687 s

Compound | RP-LC retention time
O=C(Nc1ccc2c(c1)OCCO2)N1CCc2nn(CC3CC3)c(=O)n2CC1 | 703 s
Cc1noc2ncn(CC(=O)Nc3ccccc3F)c(=O)c12 | 732 s
Cn1nc(C(=O)N2CCCC2)c2c1CCN(C(=O)Nc1ccc(F)cc1F)C2 | 718 s
C[C@H]1CCC/C=C/C2C[C@H](O)C[C@H]2[C@H](O)/C=C/C(=O)O1 (stereo not given in full) | 732 s
Cc1ccc(NC(=O)CN2C(=O)CCCc3cc(S(=O)(=O)N4CCCCC4)ccc32)cc1 | 845 s
CN1CCc2nc(C(=O)N[C@@H]3C[C@@H](C(=O)N(C)C)CC[C@@H]3NC(=O)C(=O)Nc3ccc(Cl)cn3)sc2C1 | 652 s
CCN(CC)CCNC(=O)Cc1c(C)nc2c(-c3ccc(F)cc3)c(C)nn2c1C | 661 s
O=C(NC1CC1)C1CCN(c2cncnc2N2CCCCC2)CC1 | 607 s
Cn1c(C(=O)NCCc2c[nH]c3ccccc23)cc2sccc21 | 916 s
CNC(=O)N1CCCN(C)c2ccccc21 | 484 s
CCC(CC)NC(=O)C1(CCO)CCN(Cc2ccccc2)C1 (stereo not given) | 618 s
CCc1cccc(Nc2nc(C)cc(=O)n2CC(=O)Nc2ccc3c(c2)OCCO3)c1 | 1040 s
CN(C1CCc2nn(CC3CC3)c(=O)n2CC1)S(=O)(=O)c1ccc(C#N)cc1 (stereo not given) | 743 s
O=C(Cn1nc2c3cc(-c4ccc(Cl)cc4)nn3ccn2c1=O)NC1CCCCC1 | 906 s
Cc1csc(-c2csc(S(=O)(=O)N(C)Cc3ccccc3)c2)n1 | 1090 s
CCOC(=O)c1ccc(NC(=O)Nc2cccs2)cc1 | 888 s
O=C(Nc1ccccc1)C1CCCN(S(=O)(=O)Cc2ccc(Cl)cc2)C1 (stereo not given) | 1010 s
CC(=O)N[C@@H]1CN(C(=O)c2ccc3c(c2)OCO3)C[C@H]1CO | 571 s
CCOc1ccc2cccc(NC(=O)c3ccccc3C(F)(F)F)c2n1 | 1200 s
CCCNC(=O)C1CCCN(c2ccc(SCC(=O)NCCc3ccc(Cl)cc3)nn2)C1 (stereo not given) | 676 s
Cn1c(C(=O)NCc2ccc(F)cc2)cc2sccc21 | 663 s
CN(C)C(=O)c1ccc2c(c1)n(Cc1cccc(F)c1)c(=O)c1ccnn12 | 801 s

Continued, values first:

RP-LC retention time | Compound
909 s | O=C(c1cc(Cl)ccc1F)N1CCN(C(=O)c2nnn3c2COC(c2ccccc2)C3)CC1 (stereo not given)
715 s | COc1ccc(C(=O)N2CCC3(CC2)NC(=O)c2ccc(F)cc2N3C)c(OC)c1
592 s | OC1(c2ccccn2)CCOC2(CCN(Cc3cccc(C(F)(F)F)c3)CC2)C1 (stereo not given)
566 s | Cn1c(C2CCC(CNC(=O)Cn3c(=O)oc4ccccc43)CC2)nc2ccccc21 (stereo not given)
707 s | COc1ccc(NS(=O)(=O)c2cc(-c3[nH]ncc3C(=O)N3CCCC3)oc2C)c(C)c1
1060 s | CCn1c(=O)c(N2CCN(C(=O)Nc3ccc(Br)c(C)c3)CC2)nc2cccnc21
581 s | CCN1CCN(c2ncc(C(=O)Nc3c(F)cc(F)cc3Br)c3ccccc23)CC1
894 s | CC(C)N1C(=O)c2cccnc2Sc2cc(NC(=O)COc3ccc(F)cc3)ccc21
779 s | CC(C)NC(=O)c1nnc(-c2ccc(S(=O)(=O)N3CCCC3)cc2)o1
1030 s | CCn1c(=O)c(N2CCN(C(=O)Nc3ccc(Br)cc3F)CC2)nc2ccccc21
608 s | CN1CCN(C(=O)C2(C)CC(c3ccccc3)=NO2)CC1 (stereo not given)
675 s | CC(C)c1nnc(-c2ccc(S(=O)(=O)N3CCN(c4ccccn4)CC3)o2)o1
744 s | COc1ccc(N2CCN(c3nnc(-c4nnc(C)o4)c4ccccc34)CC2)cc1
584 s | CCC(=O)N1CCc2cc(N3CC(C(=O)N4CCN(c5ccccn5)CC4)CC3=O)ccc21 (stereo not given)
699 s | COc1ccc(CC(C)(O)CNC(=O)Nc2cccs2)cc1 (stereo not given)
1050 s | Cc1cc(C(=O)NCCc2c[nH]c3ccccc23)c2c(C)nn(-c3cccc(Cl)c3C)c2n1
768 s | CCOC(=O)c1nc(NCc2ccc(OC)cc2OC)c2ccccc2n1
689 s | Cc1ccc(N2CC(C(=O)NCCn3cnc(-c4ccccc4)cc3=O)CC2=O)cc1C (stereo not given)
630 s | CCc1nc2ccc(-c3noc(-c4ccc(NC(C)=O)cc4)n3)cc2n1CC
866 s | COc1ccc(OC)c(S(=O)(=O)N2CCC(C)(c3noc(C)n3)CC2)c1
615 s | Cc1cc(N2CCN(C)CC2)nc(N2CCN(S(=O)(=O)c3ccc(-c4ccccc4)cc3)CC2)n1
703 s | O=C([C@@H]1C[C@H](Oc2ccccc2)CN1C(=O)c1n[nH]c(=O)c2ccccc12)N1CCCC1
1360 s | CCOc1cc(C(=O)Nc2nc(-c3ccc(OC)cc3)c(C)s2)cc(OCC)c1OCC

RP-LC retention time | Compound
1170 s | COc1ccc(Br)c2c1-c1nc(NC(=O)c3ccc(F)cc3)sc1C2
801 s | O=c1ccc(N2CCC(NS(=O)(=O)c3cccs3)C2)nn1CCOc1ccccc1 (stereo not given)
822 s | COc1ccc(-c2cc3n(n2)CCCN(C(=O)Cc2ccsc2)C3)cc1
1040 s | Cc1ccc2c(c1)N(Cc1nc(-c3ccccc3Cl)no1)C(=O)CO2
739 s | Cc1nn(-c2ccccc2)c(C)c1C=NN1CCN(Cc2ccccc2)CC1
768 s | COc1ccc(CCC(=O)N2CCN(S(=O)(=O)c3cc4c5c(c3)CCC(=O)N5CCC4)CC2)cc1
680 s | Cc1cccc(-c2nc3ccccn3c2NC(=O)NCCc2ccccc2)c1
685 s | Cc1ccc(C(CC(=O)NCCCN2CCCC2=O)N2Cc3ccccc3C2=O)cc1 (stereo not given)
843 s | Cc1ccc(-c2csc(Nc3cc(C)ccn3)n2)cc1
961 s | CCOC(=O)C1CCN(C(=O)c2nnc(-c3ccc(S(=O)(=O)N4CCCCC4)cc3)o2)CC1
742 s | O=C1NC2(CCN(C(=O)Nc3ccc(F)cc3)CC2)Oc2ccccc21
846 s | Cc1nc(-c2ccc(OC3CCN(C(=O)c4[nH]nc5c4COc4ccccc4-5)C3)cc2)no1 (stereo not given)
826 s | COc1ccc(NC(=O)CN2C(=O)C(C)(C)c3ccccc32)cc1
686 s | COc1cccc(C2CC(c3ccc(Cl)cc3)=NC3(CCN(C(C)=O)CC3)N2)c1O (stereo not given)
780 s | CCN1CCCn2cc(S(=O)(=O)N(CC)c3ccccc3)cc2C1=O
810 s | Cc1cccc(C)c1NC(=O)CCCSc1nnnn1-c1ccccc1
751 s | Cc1cccc2nnc(N3CCN(C(=O)c4ccc(C(F)(F)F)s4)CC3)n12
708 s | Cc1ccc(-c2c(N3CCN(c4ccccn4)CC3)c(=O)c2=O)cc1C
961 s | COc1ccc(-c2nc3cnccn3c2Nc2cccc(Cl)c2)cc1
882 s | O=C(COc1ccc(F)cc1)Nc1cc(F)c2nc(N3CCOCC3)ccc2c1
791 s | CC(NC(=O)CCCN1C(=O)CCn2nc(-c3cn(C)c4ccccc34)cc21)c1ccccc1 (stereo not given)
949 s | COc1ccc(-c2nnc(Cc3nc(-c4ccccc4)no3)o2)cc1OC
